Data taken from patent publication US10597388B2, “Pyridazinone herbicides” (FMC CORPORATION, priority 2014, dated 2020).

Experiments:
Type in all cases: in vivo
[1] = tested on: barnyardgrass (Echinochloa crus-galli); test: Test A greenhouse herbicide test, pre- and postemergence
Method in brief: (§1)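 Seeds sown in loam–sand blend got a preemergence directed soil spray of compound in non-phytotoxic solvent with surfactant. Postemergence treatment was given at 2–10 cm, one- to two-leaf stage. After ~10 d in greenhouse, injury was rated visually vs untreated controls, 0 (no effect) to 100 (complete control).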

[2] = tested on: corn (Zea mays); test: as above; conditions: Postemergence; for Plant response rating, Corn: 125 g ai/ha, 0 to 100 scale where 0 is no effect and 100 is complete control; for Corn plant response rating: 500 g ai/ha, 0 to 100 scale, 0 is no effect, 100 is complete control
Method in brief: as §1

[3] = tested on: foxtail, giant (giant foxtail, Setaria faberii); test: as above
Method in brief: as §1

[4] = tested on: kochia (Kochia scoparia); test: as above
Method in brief: as §1

[5] = tested on: pigweed (Amaranthus retroflexus); test: as above
Method in brief: as §1

[6] = tested on: ragweed (common ragweed, Ambrosia elatior); test: as above
Method in brief: as §1

[7] = tested on: ryegrass, Italian (Italian ryegrass, Lolium multiflorum); test: as above
Method in brief: as §1

[8] = tested on: wheat (Triticum aestivum); test: as above; conditions: Postemergence; for Plant response rating, Wheat: 125 g ai/ha, 0 to 100 scale where 0 is no effect and 100 is complete control; for Wheat plant response rating: 500 g ai/ha, 0 to 100 scale, 0 is no effect, 100 is complete control
Method in brief: as §1

[9] = tested on: blackgrass (Alopecurus myosuroides); test: Test A greenhouse herbicide test, postemergence; conditions: for Plant response rating, Blackgrass: 125 g ai/ha, 0 to 100 scale where 0 is no effect and 100 is complete control; for Blackgrass plant response rating: 500 g ai/ha, 0 to 100 scale, 0 is no effect, 100 is complete control
Method in brief: (§2)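 Greenhouse postemergence test: formulated chemicals sprayed on one- to two-leaf plants (2 to 10 cm), grown in loam soil blended with sand. Injury assessed visually about 10 d later against untreated controls, scored 0 (no effect) to 100 (complete control).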

[10] = tested on: galium (catchweed bedstraw, Galium aparine); test: Test A greenhouse herbicide test, postemergence; conditions: for Plant response rating, Galium: 125 g ai/ha, 0 to 100 scale where 0 is no effect and 100 is complete control; for Galium plant response rating: 500 g ai/ha, 0 to 100 scale, 0 is no effect, 100 is complete control
Method in brief: as §2

[11] = tested on: barnyardgrass (Echinochloa crus-galli); test: Test B flooded paddy test; conditions: 250 g ai/ha, Flood; visual rating on scale of 0 to 100 where 0 is no effect and 100 is complete control; 13 to 15 d after treatment
Method in brief: (§3)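 Plants at the 2-leaf stage were flooded to 3 cm above soil, and test compounds were applied directly into the paddy water, which was held at that depth throughout. After 13 to 15 d in a greenhouse, injury was rated visually against untreated controls on a 0–100 scale (0 no effect, 100 complete control).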

[12] = tested on: ducksalad (Heteranthera limosa); test: Test B flooded paddy test; conditions: 250 g ai/ha, Flood; visual rating on scale of 0 to 100 where 0 is no effect and 100 is complete control; 13 to 15 d after treatment
Method in brief: as §3

[13] = tested on: rice (Oryza sativa); test: Test B flooded paddy test; conditions: 250 g ai/ha, Flood; visual rating on scale of 0 to 100 where 0 is no effect and 100 is complete control; 13 to 15 d after treatment
Method in brief: as §3

[14] = tested on: sedge, umbrella (small-flower umbrella sedge, Cyperus difformis); test: Test B flooded paddy test; conditions: 250 g ai/ha, Flood; visual rating on scale of 0 to 100 where 0 is no effect and 100 is complete control; 13 to 15 d after treatment
Method in brief: as §3

[15] = Postemergence, 125 g ai/ha, 0 to 100 scale where 0 is no effect and 100 is complete control
[16] = Postemergence, 500 g ai/ha, 0 to 100 scale, 0 is no effect, 100 is complete control
[17] = Preemergence, 125 g ai/ha, 0 to 100 scale where 0 is no effect and 100 is complete control
[18] = Preemergence, 500 g ai/ha, 0 to 100 scale, 0 no effect, 100 complete control

Compound	Plant response rating, Barnyardgrass [1, 15]	Barnyardgrass plant response rating [1, 16]	Barnyardgrass plant response rating [1, 17]	Plant response rating, Barnyardgrass [1, 18]	Plant response rating, Corn [2]	Corn plant response rating [2]	Plant response rating, Foxtail, Giant [3, 15]	Foxtail, Giant plant response rating [3, 16]	Foxtail, Giant plant response rating [3, 17]	Plant response rating, Foxtail, Giant [3, 18]	Plant response rating, Kochia [4, 15]	Kochia plant response rating [4, 16]	Kochia plant response rating [4, 17]	Plant response rating, Kochia [4, 18]	Plant response rating, Pigweed [5, 15]	Pigweed plant response rating [5, 16]	Pigweed plant response rating [5, 17]	Plant response rating, Pigweed [5, 18]	Plant response rating, Ragweed [6, 15]	Ragweed plant response rating [6, 16]	also measured
Cn1ncc(O)c(-c2cccc3ccccc23)c1=O [Compound 49]	0	20	0	0	0	0	0	20	0	10	0	10	0	0	20	40	0	40	0	10	Ragweed plant response rating [6, 17]: 0; Plant response rating, Ragweed [6, 18]: 10; Plant response rating, Ryegrass, Italian [7, 15]: 30; Ryegrass, Italian plant response rating [7, 16]: 50; Ryegrass, Italian plant response rating [7, 17]: 0; Plant response rating, Ryegrass, Italian [7, 18]: 30; Plant response rating, Wheat [8]: 0; Wheat plant response rating [8]: 0; Plant response rating, Blackgrass [9]: 10; Blackgrass plant response rating [9]: 30; Plant response rating, Galium [10]: 50; Galium plant response rating [10]: 80; Plant response rating, Barnyardgrass [11]: 0; Plant response rating, Ducksalad [12]: 0; Plant response rating, Rice [13]: 0; Plant response rating, Sedge, Umbrella [14]: 0
COc1ccc2sc(C)c(-c3c(O)c(C)nn(C)c3=O)c2c1 [Compound 53]	0	20	0	20	0	0	0	30	50	50	70	80	50	70	60	70	50	70	60	70	Ragweed plant response rating [6, 17]: 0; Plant response rating, Ragweed [6, 18]: 50; Plant response rating, Ryegrass, Italian [7, 15]: 40; Ryegrass, Italian plant response rating [7, 16]: 70; Ryegrass, Italian plant response rating [7, 17]: 10; Plant response rating, Ryegrass, Italian [7, 18]: 50; Plant response rating, Wheat [8]: 0; Wheat plant response rating [8]: 20; Plant response rating, Blackgrass [9]: 0; Blackgrass plant response rating [9]: 30; Plant response rating, Galium [10]: 60; Galium plant response rating [10]: 80; Plant response rating, Barnyardgrass [11]: 0; Plant response rating, Ducksalad [12]: 0; Plant response rating, Rice [13]: 0; Plant response rating, Sedge, Umbrella [14]: 0
COc1ccc(-c2c(O)c(C)nn(C)c2=O)c2ccccc12 [Compound 58]	0	0	0	20	0	0	0	10	0	0	20	90	20	80	0	20	0	20	0	60	Ragweed plant response rating [6, 17]: 70; Plant response rating, Ragweed [6, 18]: 80; Plant response rating, Ryegrass, Italian [7, 15]: 60; Ryegrass, Italian plant response rating [7, 16]: 80; Ryegrass, Italian plant response rating [7, 17]: 70; Plant response rating, Ryegrass, Italian [7, 18]: 100; Plant response rating, Wheat [8]: 0; Wheat plant response rating [8]: 20; Plant response rating, Blackgrass [9]: 20; Blackgrass plant response rating [9]: 50; Plant response rating, Galium [10]: 70; Galium plant response rating [10]: 100; Plant response rating, Barnyardgrass [11]: 0; Plant response rating, Ducksalad [12]: 0; Plant response rating, Rice [13]: 0; Plant response rating, Sedge, Umbrella [14]: 0
CCC(=O)Oc1c(C)nn(C)c(=O)c1-c1ccc(Cl)c2ccccc12 [Compound 62]	70	90	50	90	10	30	80	90	50	90	100	100	90	90	100	100	100	100	100	100	Ragweed plant response rating [6, 17]: 70; Plant response rating, Ragweed [6, 18]: 90; Plant response rating, Ryegrass, Italian [7, 15]: 100; Ryegrass, Italian plant response rating [7, 16]: 100; Ryegrass, Italian plant response rating [7, 17]: 100; Plant response rating, Ryegrass, Italian [7, 18]: 100; Plant response rating, Wheat [8]: 0; Wheat plant response rating [8]: 50; Plant response rating, Blackgrass [9]: 70; Blackgrass plant response rating [9]: 80; Plant response rating, Galium [10]: 100; Galium plant response rating [10]: 100; Plant response rating, Barnyardgrass [11]: 20; Plant response rating, Ducksalad [12]: 20; Plant response rating, Rice [13]: 0; Plant response rating, Sedge, Umbrella [14]: 75
